Results reported in ChEMBL document CHEMBL1139072, “A molecular modeling analysis of novel non-hydroxamate inhibitors of TACE” (Bioorg Med Chem Lett, 2007).

Legend:
[1] = Dissociation constant, pKa in water; type: physicochemical
[2] = target: Disintegrin and metalloproteinase domain-containing protein 17 (Sus scrofa, UniProt O77636); experiment: Inhibition of porcine TACE
Sequence of Disintegrin and metalloproteinase domain-containing protein 17 (O77636 whole entry, the tested form may be a part): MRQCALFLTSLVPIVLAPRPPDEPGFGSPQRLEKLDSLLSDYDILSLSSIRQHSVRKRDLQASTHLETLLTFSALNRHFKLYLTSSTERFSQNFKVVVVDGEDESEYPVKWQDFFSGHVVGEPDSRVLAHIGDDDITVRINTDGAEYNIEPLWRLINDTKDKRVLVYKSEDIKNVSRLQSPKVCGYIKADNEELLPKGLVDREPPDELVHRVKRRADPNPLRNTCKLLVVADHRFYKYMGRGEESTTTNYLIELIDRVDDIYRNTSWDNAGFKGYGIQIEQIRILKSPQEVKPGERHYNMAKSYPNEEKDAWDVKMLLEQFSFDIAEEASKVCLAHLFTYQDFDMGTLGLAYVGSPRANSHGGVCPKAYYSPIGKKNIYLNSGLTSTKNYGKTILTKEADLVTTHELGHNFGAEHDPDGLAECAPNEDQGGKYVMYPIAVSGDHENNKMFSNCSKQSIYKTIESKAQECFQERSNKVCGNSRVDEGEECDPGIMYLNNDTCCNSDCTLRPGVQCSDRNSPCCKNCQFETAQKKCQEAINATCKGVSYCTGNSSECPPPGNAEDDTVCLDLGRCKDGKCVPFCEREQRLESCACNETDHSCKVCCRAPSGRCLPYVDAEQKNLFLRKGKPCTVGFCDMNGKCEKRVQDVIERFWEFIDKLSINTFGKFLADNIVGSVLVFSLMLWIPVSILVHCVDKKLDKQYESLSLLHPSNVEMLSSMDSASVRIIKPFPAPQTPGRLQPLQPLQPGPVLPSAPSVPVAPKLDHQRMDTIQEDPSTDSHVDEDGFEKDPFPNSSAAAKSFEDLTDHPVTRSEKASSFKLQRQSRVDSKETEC

| Compound | pKa [1] | IC50 [2] [nM] |
| --- | --- | --- |
| Cc1cc(COc2ccc(C3(N4CCN(C)CC4)C(=O)NC(=O)NC3=O)cc2)c2ccccc2n1 | 7.2 | 91 |
| Cc1cc(COc2ccc([C@@]3(C)CCN([C@@H](C)C(=O)NO)C3=O)cc2)c2ccccc2n1 | 9 | < 1 |
| Cc1cc(COc2ccc(C(=O)N[C@H]3CNC[C@@]34NC(=O)NC4=O)cc2)c2ccccc2n1 |  | 25 |
| Cc1cc(COc2ccc(NC(=O)C[C@H]3CCC[C@]34NC(=O)NC4=O)cc2)c2ccccc2n1 [listing 1 of 2 here] |  | 17 |
| Cc1cc(COc2ccc(NC(=O)C[C@@H]3CCC[C@]34NC(=O)NC4=O)cc2)c2ccccc2n1 |  | 7400 |
| Cc1cc(COc2ccc(NC(=O)C[C@@H]3CCC[C@@]34NC(=O)NC4=O)cc2)c2ccccc2n1 |  | 11 |
| Cc1cc(COc2ccc(NC(=O)[C@H]3CCC[C@]34NC(=O)NC4=O)cc2)c2ccccc2n1 |  | 230 |
| Cc1cc(COc2ccc(NC(=O)[C@@H]3CCC[C@]34NC(=O)NC4=O)cc2)c2ccccc2n1 |  | 64 |
| Cc1cc(COc2ccc(C(=O)NCC3NC(=O)NC3=O)cc2)c2ccccc2n1 (centres undefined) |  | 98 |
| Cc1cc(COc2ccc(C(=O)N[C@@H]3CNC[C@]34NC(=O)NC4=O)cc2)c2ccccc2n1 |  | 900 |
| Cc1cc(COc2ccc(NC(=O)C[C@H]3CCC[C@]34NC(=O)NC4=O)cc2)c2ccccc2n1 [listing 2 of 2 here] | 8.9 | 900 |
